Experimental data published in patent US20220047556A1 (INSERM (Institut National de la Santé et de la Recherche …, priority 2018, published 2022).

Assays:
Type in all cases: cell-based, human
[1] = test system: PD-1 expression in T cells; experiment: PD-1 mRNA levels in PMA/Io-activated T cells, real-time qPCR; conditions: T cells incubated 24 h, FIG. 1H
Text: (H) PD-1 mRNA levels following PMA/Io stimulation of T cells, as assessed by Real-time qPCR. Data are represented as fold change to PMA/Io-activated cells assigned 1. […] Data represented as mean±SEM from 3 (H, J) and 2 (0) independent experiments.
Human colon carcinoma cell lines HT29 (microsatellite-instable (MSI)) and HCT116 (microsatellite-stable (MSS)) cells, BALB/c syngeneic colon carcinoma CT26 cell line, and human T cell lines Jurkat, J.RT3-T3.5 (JRT3), Myla, SeAx and HUT-78, were cultured in DMEM or RPMI 1640 complete media.
(§1) Activation of TCR signaling was performed either with phorbol myristate acetate (PMA) and Ionomycin (Io) or with plate-bound anti-CD3.

[2] = test system: NF-κB phosphorylation; experiment: phospho-NFκBp65 Western blot and densitometry in T cells after PMA/Io stimulation; conditions: Sulconazole 2 μM, FIG. 1M
[3] = test system: PD-1 positive T cells; experiment: Immunofluorescence quantification of PD-1 positive T cells; conditions: activated T cells treated 24 h, FIGS. 1K and 1L
[4] = test system: PD-1 expression in T cells; experiment: PD-1 protein expression in PMA/Io-activated T cells, flow cytometry; conditions: T cells incubated 24 h, FIGS. 1I and 1J
Experimental: as §1
Flow cytometry analyzed were performed on Single cell suspension of hPBMCs and T cells using BD Accuri C6 software, or Diva (BD Biosciences) and FlowJo 9.3.2 (TreeStar) softwares (flow cytometry facility of TBM Core).

[5] = test system: JRT3 cells (TCR-activation marker CD69); experiment: JRT3 functional assay: CD69 in JRT3 cells co-cultured with EPCR-expressing HT29 cells; conditions: 24 h, compared to JRT3 cells cultured alone, FIGS. 1N and 1O
Experimental: The Jurkat T cell line J.RT3-T3.5 (JRT3) stably expressing the human LES-γδ TCR (JRT3-LES) was incubated with the colon cancer cell line HT29 overexpressing the endothelial protein C receptor (HT29-EPCR) (34). The activation of JRT3-LES cells was evaluated by the expression of CD69.

Structure (SMILES): Clc1ccc(CSC(Cn2ccnc2)c2ccc(Cl)cc2Cl)cc1 (centres unmarked) [Sulconazole, 1-[2-[(4-chlorophenyl)methylsulfanyl]-2-(2,4-dichlorophenyl)ethyl]imidazole]
- PD-1 expression at the RNA level [1]: repressed PD-1 expression
- NF-κB phosphorylation after PMA/Io stimulation [2]: inhibited
- reduction of PD-1+ cells [3]: 50%
- PD-1 expression at the protein level [4]: repressed PD-1 expression
- CD69 expression and number of CD69 positive cells [5]: increased in the absence or presence of Sulconazole
